Reference: publication PMC5325082 (Molecular Pharmacology, 2017)

Assays:
[1] = biological target: T1, α9χα10χ (α9 and α10 extracellular domains fused to 5-HT3A) (UniProt P23979+P43144+Q9JLB5, L231I/L232I); assay: [3H]-α-BTX radioligand binding, membranes of transfected tsA201 cells; parameters: species or system rat
T1 construct: the extracellular N-terminal domain of the α9 or α10 subunit; expressed in transfected cells; host or cells: tsA201 cells (HEK293-derived), membrane preparation
Protocol: (§1) Chimeric subunit cDNAs containing the extracellular N-terminal domain of the α9 or α10 subunit fused to the transmembrane and intracellular domain of the mouse 5-HT3A subunit have been described previously ([Baker et al., 2004]). The mammalian cell line tsA201 (derived from the human embryonic kidney 293 cell line) was obtained from Dr. William Green (University of Chicago, Chicago). Cells were cultured in Dulbecco’s modified Eagle’s medium (Invitrogen, Paisley, United Kingdom) containing 2 mM L-GlutaMAX (Invitrogen) plus 10% heat-inactivated fetal calf serum (Sigma, Poole, United Kingdom) with penicillin (100 U/ml) and streptomycin (100 µg/ml) and were maintained in a humidified incubator containing 5% CO2 at 37°C. Cells were transiently transfected using Effectene transfection reagent (QIAGEN, Crawley, United Kingdom) according to the manufacturer’s instructions. In all cases, cells were transfected overnight and assayed for expression approximately 40–48 hours after transfection. To ensure that the levels of radioligand binding were not influenced by differences in the amount of subunit cDNA expressed, the amount of each subunit plasmid DNA and also the total amount of plasmid DNA were kept constant when subunits were expressed singly and in combination. This was achieved by the inclusion of empty plasmid expression vector when single subunits were transfected.
(§2) Binding studies with [^3H]-α-bungarotoxin (α-BTX) in cell membrane preparations were performed essentially as described previously ([Lansdell and Millar, 2000]; [Harkness and Millar, 2002]). Membranes (typically, 10–100 µg of protein) were incubated with radioligand (final concentration 20 nM) for 150 minutes at 4°C in a total volume of 300 µl in the presence of protease inhibitors leupeptin (2 µg/ml) and pepstatin (1 µg/ml). Our standard protocol for determining nonspecific binding was the addition of 1 mM carbachol, 1 mM nicotine, and 10 µM methyllycaconitine to triplicate samples. […] In all cases the levels of specific binding were determined by subtracting the level of nonspecific binding from the total binding (both of which were determined in triplicate). The data were determined as means of three independent experiments, each performed in triplicate. Radioligand binding was assayed by filtration onto 0.5% polyethylenimine-presoaked Whatman GF/B filters (Sigma-Aldrich, Dorset, England) followed by rapid washing (typically, five washes, each of 4 ml) with ice-cold 10 mM phosphate buffer using a Brandel cell harvester, and radioactivity was determined by scintillation counting. […] Protein concentrations were determined using bovine serum albumin standards (Bio-Rad, Hercules, CA).

α9χα10χW55T = biological target: T2, α9χα10χW55T (UniProt P23979+P43144+Q9JLB5, L231I/L232I/W81T); assay: as above; parameters: species or system rat
T2 construct: containing the extracellular N-terminal domain of the α9 or α10 subunit fused to the transmembrane and intracellular domain of the mouse 5-HT3A subunit; mouse 5-HT3A subunit transmembrane and intracellular domain (fusion partner); expressed in transfected cells; host or cells: tsA201 (derived from human embryonic kidney 293), transient transfection; membrane preparations
Protocol: as §1, §2

α9χY190T (homomeric) = format: binding, rat
α10χY190T (homomeric) = format: binding, rat
[2] = tested on: α9χY190Tα10χY190T (heteromeric double mutant); format: binding, rat
α9χY190Tα10χ = format: binding, rat
α9χα10χY190T = format: binding, rat
[3] = tested on: homomeric α9χW55T receptors; format: binding, rat
[4] = tested on: homomeric α10χW55T receptors; format: binding, rat
homomeric α10χ = homomeric α10χ (UniProt P23979+Q9JLB5, L231I/L232I); format: binding, rat
α9χW55Tα10χ = α9χW55Tα10χ (UniProt P23979+P43144+Q9JLB5, L231I/L232I/W82T); format: binding, rat
α9χW55Tα10χW55T = format: binding, rat

α-bungarotoxin [[^3H]-α-BTX] was tested, and the “Specific binding of [3H]-α-BTX, fold higher than α9χ expressed alone” value [1] was 6 fold, the “Specific binding of [3H]-α-BTX” value (α9χα10χW55T) was “specific binding levels similar to those observed with wild-type heteromeric α9χα10χ receptors” and the “Specific binding of [3H]-α-BTX” value (α9χY190T (homomeric)) was “complete loss of specific binding”. The “Specific binding of [3H]-α-BTX” value (α10χY190T (homomeric)) was “complete loss of specific binding”, the “Specific binding of [3H]-α-BTX” value [2] was “complete loss of specific binding” and the “Specific binding of [3H]-α-BTX, fold higher than homomeric α10χ” value (α9χY190Tα10χ) was 4 fold. The “Specific binding of [3H]-α-BTX, fold lower than wild-type α9χα10χ” value (α9χY190Tα10χ) was 6 fold, the “Specific binding of [3H]-α-BTX, fold lower than wild-type α9χα10χ” value (α9χα10χY190T) was 4 fold and the “Specific binding of [3H]-α-BTX” value [3] was “no detectable specific binding”. For the same substance, the “Specific binding of [3H]-α-BTX” value [4] was 2.5 ± 0.6 fmol/mg, the “Specific binding of [3H]-α-BTX” value (homomeric α10χ) was 1.4 ± 0.5 fmol/mg and the “Specific binding of [3H]-α-BTX” value (α9χW55Tα10χ) was “binding levels similar to those observed with either α10χ or α10χW55T when expressed alone”. For the same substance, the “Specific binding of [3H]-α-BTX” value (α9χW55Tα10χW55T) was “binding levels similar to those observed with either α10χ or α10χW55T when expressed alone”.
